Measured values taken from US8623649B2, “Method of selecting a cardiomyoctye using intracellular mitochondria as an indicator” (Daiichi Sankyo Company, Limited, priority 2004, dated 2014).
“Also recorded” adds a separate entry of the source.

How the values were obtained:
Assay type in all cases: cell-based
[1] = test system: cell mixture derived from a whole heart extracted from neonatal rat heart; experiment: Labeling of neonatal rat whole-heart cell mixture with mitochondrial indicator, FACS sorting, anti-Sarcomeric α-Actinin immunostaining; conditions: for percentage of cardiomyocyte in cells with relatively higher fluorescent intensity (P5 area): cultured 24 hours
Experimental: (§1) Neonatal rats 1-3 days after birth were sacrificed by cervical dislocation after ether anesthesia, after which the heart of each rats was isolated. Cardiac ventricle isolated from the heart was treated with 0.025% (w/v) of collagenase (available from Warthington Biomedical Corporation) in serum free D-MEM (High-glucose) medium (available from Invitrogen). By digesting the cardiac ventricle using collagenase, cells were dispersed in the medium to prepare a cell mixture derived from a whole heart.
(§2) Subsequently, the culture medium was replaced by D-MEM (High-glucose) medium (available from Invitrogen) supplemented with 10% (final concentration) of fetal bovine serum (available from JRH Bioscience). Thus prepared cultured cells were incubated in the culture medium containing 100 nM (final concentration) of a mitochondrial indicator, M7512 (available from Molecular Probe) for 10 minutes at 37° C. After incubation, the cells were washed 4 times using the culture medium and further cultured for 24 hours at 37° C.
The cell mixture derived from a whole heart was prepared in accordance with the method described in Example 1 and labeled with M7512. The labeled cell mixture derived from a whole heart was subjected to analysis of distribution of the cells of the cell mixture derived from a whole heart using FACS (registered trademark) (BD, Franklin Lakes, N.J. USA).
In this example, cells of P5 area were sorted as a cardiomyocyte and cells of P6 area were sorted as a non-cardiomyocyte, each then being separately subjected to the cell culture.
(§3) Next, the fixed cells were labeled with a cardiomyocyte marker, mouse anti-Sarcomeric α-Actinin Antibody (available from SIGMA), which were visualized using green fluorescent material-conjugated goat anti-mouse antibody (available from Molecular Probes).
In this example, the cell mixture derived from a whole heart extracted from a neonatal rat heart, which was labeled with a mitochondrial indicator, was prepared by the same method as that described in Example 1, except that T3168 (available from Molecular Probe) was used as a mitochondrial indicator.
Thus selected cells were cultured followed by paraformaldehyde fixation by the same method as that described in Example 5, which were labeled with mouse anti-Sarcomeric α-Actinin Antibody (available from SIGMA).
Neonatal rat heart was treated with 0.025% (w/v) of collagenase (available from SIGMA) and trypsin (available from GIBCO) to collect a cell population. Cells dispersed in the culture medium were exposed to 1 μM (final concentration) of a mitochondrial indicator, T668 (available form Molecular Probe) for 15 minutes at 37° C., washed 3 times, and immediately analyzed by FACS.
Neonatal rat heart was treated with collagenase and trypsin to collect a cell population. Cells dispersed in the culture medium were exposed to 1 μM (final concentration) of a mitochondrial indicator S7563 for 15 minutes at 37° C., washed 3 times, and immediately analyzed by FACS.

[2] = test system: cell mixture derived from a mouse embryonic stem cell; experiment: Labeling of mouse embryonic stem cell derived cell mixture with mitochondrial indicator, FACS sorting, Actinin immunostaining
Excerpt: as §3

[3] = test system: fetal rat cells derived from a whole heart; experiment: Staining of fetal rat whole-heart cells (13th day post conception), FACS sorting, anti-Actinin immunostaining; conditions: fetal rat heart of 13th day post conception; 1 μM, 15 minutes at 37° C.
Experimental: Fetal rat heart of 13th day post conception was treated with collagenase and trypsin to collect a cell population. Cells dispersed in the culture medium were exposed to 1 μM (final concentration) of a mitochondrial indicator T668 for 15 minutes at 37° C., washed 3 times, and immediately subjected to FACS analysis. The cells were separated into 3 groups of cell population based on T668 fluorescent intensity (FIG. 9-1).
Then, the cardiomyocyte was identified by immunostaining of the cultured cell using anti-Actinin antibody.

whole fetal cells = experiment: Staining of whole fetal cells (fetal rat of 9th day post conception), FACS sorting, Actinin immunostaining; conditions: 1 μM, 15 minutes at 37° C.
Experimental: Fetal rat of 9th day post conception was treated with collagenase and trypsin to collect cell population. Cells dispersed in the culture medium were exposed to 1 μM (final concentration) of a mitochondrial indicator T668 for 15 minutes at 37° C., washed 3 times, and immediately subjected to FACS analysis. One single cell population was mainly observed as a cell population based on the fluorescent intensity. On the other hand, in the high fluorescent intensity area in which the cardiomyocyte was predicted to be detected based on the analysis of a whole heart sample from the later development stage, a definite cell population could not be found (FIG. 10-1).
The cells were cultured and immunostained with an antibody against a cardiomyocyte marker, Actinin. […] Since the cardiomyocyte is extremely immature in the fetus of 9th day post conception (early embryo), it is considered in the art that quantitative alteration of the mitochondria has not completely occurred.

[4] = test system: neonatal rat cells derived from a whole heart; experiment: Double staining with T668 and M7514, comparative FACS analysis of transmembrane potential per mitochondria
Experimental: Cell population was collected using the same materials and the same method as those described in Example 8. Thus collected cardiomyocytes were stained with a mitochondrial indicator, M7514 (available from Molecular Probe), independent of the transmembrane potential which can specifically stain mitochondria and with a mitochondrial indicator T668 dependent on the transmembrane potential which can also specifically stain mitochondria. The cells were analyzed using FACS immediately after the staining. It is possible to separately detect the fluorescence of T668 and that of M7514 since the wavelength of the fluorescence from T668 is different from that from M7514. In this example, three groups of cell population were detected based on T668 fluorescence as an indicator.
Next, each cell population is separated based on the ratio of fluorescent intensity derived from T668 divided by fluorescent intensity derived from M7514. […]

[5] = test system: rat cells derived from a whole heart; experiment: Staining of rat whole-heart cells from 11th day post conception to 8 days after birth and FACS analysis; conditions: 11th day post conception to 8 days after birth; 1 μM, 15 minutes at 37° C.
Experimental: Rat heart obtained at 11th day post conception to 8 days after birth was treated with collagenase and trypsin to collect a cell population. Cells dispersed in the culture medium were exposed to 1 μM (final concentration) of a mitochondrial indicator T668 for 15 minutes at 37° C., washed 3 times, and immediately analyzed by FACS. In consequence, the cell population was isolated by T668 fluorescent intensity. […] Therefore, it is shown that it is possible to presume the maturity of the cardiomyocyte by the method provided by the present specification.

[6] = test system: cell mixture derived from a whole heart extracted from neonatal rat heart; experiment: Fluorescent microscope observation of labeled neonatal rat whole-heart cell mixture; conditions: 100 nM, 10 minutes at 37° C., cultured 24 hours
Experimental: as §1, §2

[7] = test system: cell mixture derived from a mouse embryonic stem cell; experiment: Fluorescent microscope observation of labeled mouse embryonic stem cell derived cell mass; conditions: labeled as Example 1, adhesion culture 5 days after removal of M7512
Experimental: Fourteen days after differentiation and induction, a cell mass containing an autonomously pulsating cardiomyocyte was confirmed to be formed in the culture vessel, to which 10^−8 M of all trans-retinoic acid was added for further enhancing the degree of differentiation/induction of the cardiomyocyte.
At 21st day from differentiation/induction, a cell mass containing an autonomously pulsating cardiomyocyte was dispersed into separate cells to form a cell mixture. Thus prepared cell mixture was labeled with M7512 under the same condition as that of Example 1 and cultured under the condition of the adhesion culture for further 5 days after removal of M7512. After further culture for 5 days, a cell mass containing an autonomously pulsating cardiomyocyte prepared under the culture condition was observed using a fluorescent microscope.

[8] = 100 nM indicator, 10 minutes at 37° C., FACS sorted, anti-Sarcomeric α-Actinin, 30% before selection
[9] = 1 μM indicator, 15 minutes at 37° C., immediate FACS, anti-Actinin immunostaining
[10] = 1 μM, 15 minutes at 37° C., immediate FACS, Actinin immunostaining

## CCN1C(=CC=Cc2n(CC)c3cc(Cl)c(Cl)cc3[n+]2CC)N(CC)c2cc(Cl)c(Cl)cc21 [T3168, 1H-Benzimidazolium, 5,6-dichloro-2-[3-(5,6-di-chloro-1,3-diethyl-1,3-dihydro-2H-benzimidazol-2-ylidene)-1-propenyl]-1,3-diethyl-, iodide, (E)-]
[1]; [8]
  percentage of cardiomyocyte in cells with relatively higher fluorescent intensity (P5 area): more than 95%

## COC(=O)c1ccccc1-c1c2ccc(=N)cc-2oc2cc(N)ccc12.Cl [R302]
[1]; [9]
  composition of cell population with the highest fluorescent intensity: cells of interest can also be obtained

## COC(=O)c1ccccc1-c1c2ccc(N(C)C)cc2[o+]c2cc(N(C)C)ccc12 [T668, Xanthylium, 3,6-bis(dimethylamino)-9-(2-(methoxycarbonyl)phenyl)-, perchlorate]
[1]; [9]
  composition of cell population with the highest fluorescent intensity: almost all cells of the cell population with the highest intensity of T668 fluorescent signal consist of a cardiomyocyte
  composition of cell population with the middle fluorescent intensity: almost all cells of the cell population with the middle fluorescent intensity consist of a non-cardiomyocyte
[2]; [10]
  composition of main cell population: Almost all of the cells collected consist of a non-cardiomyocyte
  percentage of cardiomyocyte in high fluorescent cell population: More than 98%
[3]
  composition of cell population with the highest fluorescent intensity: almost all cells of the cell population with the highest intensity of T668 consist of a cardiomyocyte; also recorded: almost all cells of the cell population with the highest intensity of T668 fluorescent signal consist of the cardiomyocyte
  composition of cell population with the middle fluorescent intensity: almost all cells of the cell population with the middle fluorescent population consist of a non-cardiomyocyte; also recorded: almost all cells of the cell population with the middle fluorescent intensity consist of the non-cardiomyocyte
Whole fetal cells
  percentage of cardiomyocyte in high fluorescent cell population: more than 95%
[4]; cell population identified as a cardiomyocyte based on T668 signal
  cells with ratio of T668 fluorescent intensity to M7514 fluorescent intensity of more than 150%, share of total cells: 90%
[4]; cell population identified as a non-cardiomyocyte based on T668 signal
  cells with ratio of T668 fluorescent intensity to M7514 fluorescent intensity of more than 150%, share of total cells: 13%
[5]
  high fluorescent cardiomyocyte population as the development stage progressed: increased in number

## ClCc1ccc(C2=c3cc4c5c(c3Oc3c2cc2c6c3CCCN6CCC2)CCC[N+]=5CCC4)cc1.[Cl-] [M7512, 1H,5H,11H,15H-Xantheno[2,3,4-ij:5,6,7-i′j′]diquinolizin-18-ium, 9-[4-(chloromethyl)phenyl]-2,3,6,7,12,13,16,17-octahydro-, chloride]
[1]; [8]
  percentage of cardiomyocyte in cells with relatively higher fluorescent intensity (P5 area): more than 99%
  percentage of cardiomyocyte in cells with relatively lower fluorescent intensity (P6 area): approximately equal to the percentage of the cardiomyocyte before the selection
[2]; M7512 labeling as Example 1, 5 days culture after removal, 10% before selection
  percentage of cardiomyocyte in cells collected from P2 area (relatively higher fluorescent intensity): more than 80%
[6]
  indicator-based fluorescence under fluorescent microscope: clearly observed in a cardiomyocyte
[7]
  labeling of autonomously pulsating cardiomyocytes compared with other types of cells: strongly labeled
